In patent US20230364070A1, “PYRROLO[3,2-C]PYRIDIN-4-ONE DERIVATIVES USEFUL IN THE TREATMENT OF CANCER” (Scorpion Therapeutics, Inc., priority 2020, published 2023):

Key:
Assay type in all cases: cell-based
pEGFR in CUTO14 cells = biological target: T1, pEGFR in CUTO14 cells (Homo sapiens, UniProt P00533, DUP767-769); test: Inhibitor activity on EGFR phosphorylation (pEGFR AlphaLISA, 2 h), CUTO14 cells
T1 construct: endogenous in cells; host or cells: CUTO14 cells
Procedure: CUTO14 cells were obtained from Dr. Robert C. Doebele at the University of Colorado.
Shake 350 rpm for 1 hr in the dark • 3.4 Prepare donor mix under low light conditions prior to use. Dispense 5 μL of donor mix to all the wells. Mix well on the shaker, seal and wrap in aluminum foil and incubate 1.5 hrs at room temperature in the dark • 3.5 Transfer 18.5 μL mixture to OptiPlate 384, and read using an Envision.

Ba/F3 cells with EGFR WT = biological target: T2, Ba/F3 cells with EGFR WT (Homo sapiens, UniProt P00533); test: EGFR activity: Ba/F3 cell viability (CellTiter-Glo, 72 h), EGFR WT; details: read-out: BaF3 WT IC50
T2 construct: expressed in transfected cells; host or cells: Ba/F3 (murine pro-B cells), retroviral transduction, puromycin selection, maintained with EGF
T2 sequence (P00533 25-1210): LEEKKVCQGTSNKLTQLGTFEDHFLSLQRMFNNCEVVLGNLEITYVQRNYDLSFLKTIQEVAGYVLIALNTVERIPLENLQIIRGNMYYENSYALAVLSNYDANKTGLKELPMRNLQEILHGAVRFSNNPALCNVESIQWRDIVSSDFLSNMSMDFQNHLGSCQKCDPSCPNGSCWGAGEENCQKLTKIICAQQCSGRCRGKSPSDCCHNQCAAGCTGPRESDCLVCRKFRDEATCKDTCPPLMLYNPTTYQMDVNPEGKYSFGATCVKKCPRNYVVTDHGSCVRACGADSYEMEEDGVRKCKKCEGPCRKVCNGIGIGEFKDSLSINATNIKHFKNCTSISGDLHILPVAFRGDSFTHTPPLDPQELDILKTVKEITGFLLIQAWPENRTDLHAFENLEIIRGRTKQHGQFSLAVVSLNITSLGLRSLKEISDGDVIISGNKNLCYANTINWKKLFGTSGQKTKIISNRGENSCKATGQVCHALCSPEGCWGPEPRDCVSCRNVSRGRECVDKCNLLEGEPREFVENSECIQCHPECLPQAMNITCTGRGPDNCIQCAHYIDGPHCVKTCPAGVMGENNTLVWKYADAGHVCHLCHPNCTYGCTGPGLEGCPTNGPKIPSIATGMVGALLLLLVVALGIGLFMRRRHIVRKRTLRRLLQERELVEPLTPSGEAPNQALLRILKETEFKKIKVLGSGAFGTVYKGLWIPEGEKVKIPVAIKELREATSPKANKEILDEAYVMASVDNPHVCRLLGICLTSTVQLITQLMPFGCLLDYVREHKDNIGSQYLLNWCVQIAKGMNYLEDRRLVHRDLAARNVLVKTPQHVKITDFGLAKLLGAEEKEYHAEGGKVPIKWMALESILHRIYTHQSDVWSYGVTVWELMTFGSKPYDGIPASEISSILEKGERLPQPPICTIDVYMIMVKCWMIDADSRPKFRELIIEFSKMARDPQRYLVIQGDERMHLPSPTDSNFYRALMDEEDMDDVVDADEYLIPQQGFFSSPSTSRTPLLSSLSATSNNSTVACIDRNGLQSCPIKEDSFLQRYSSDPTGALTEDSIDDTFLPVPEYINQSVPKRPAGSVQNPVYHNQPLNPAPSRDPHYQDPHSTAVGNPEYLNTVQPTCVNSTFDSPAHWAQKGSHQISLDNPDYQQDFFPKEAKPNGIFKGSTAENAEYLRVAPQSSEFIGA

[1] = biological target: T3, Ba/F3 cells with EGFR exon 20 ASV Ins V769_D770 (Homo sapiens, UniProt P00533, INS769ASV); test: EGFR activity: Ba/F3 cell viability (CellTiter-Glo, 72 h), EGFR exon 20 ASV insertion; details: EGFR exon 20 ASV Ins V769_D770, cell viability, read-out: BaF3 ASV IC50
T3 construct: expressed in transfected cells; host or cells: Ba/F3 (murine pro-B cells), retroviral transduction, puromycin selection, IL3-independent pool
T3 sequence (P00533 with tags, fused parts or gaps INS769ASV): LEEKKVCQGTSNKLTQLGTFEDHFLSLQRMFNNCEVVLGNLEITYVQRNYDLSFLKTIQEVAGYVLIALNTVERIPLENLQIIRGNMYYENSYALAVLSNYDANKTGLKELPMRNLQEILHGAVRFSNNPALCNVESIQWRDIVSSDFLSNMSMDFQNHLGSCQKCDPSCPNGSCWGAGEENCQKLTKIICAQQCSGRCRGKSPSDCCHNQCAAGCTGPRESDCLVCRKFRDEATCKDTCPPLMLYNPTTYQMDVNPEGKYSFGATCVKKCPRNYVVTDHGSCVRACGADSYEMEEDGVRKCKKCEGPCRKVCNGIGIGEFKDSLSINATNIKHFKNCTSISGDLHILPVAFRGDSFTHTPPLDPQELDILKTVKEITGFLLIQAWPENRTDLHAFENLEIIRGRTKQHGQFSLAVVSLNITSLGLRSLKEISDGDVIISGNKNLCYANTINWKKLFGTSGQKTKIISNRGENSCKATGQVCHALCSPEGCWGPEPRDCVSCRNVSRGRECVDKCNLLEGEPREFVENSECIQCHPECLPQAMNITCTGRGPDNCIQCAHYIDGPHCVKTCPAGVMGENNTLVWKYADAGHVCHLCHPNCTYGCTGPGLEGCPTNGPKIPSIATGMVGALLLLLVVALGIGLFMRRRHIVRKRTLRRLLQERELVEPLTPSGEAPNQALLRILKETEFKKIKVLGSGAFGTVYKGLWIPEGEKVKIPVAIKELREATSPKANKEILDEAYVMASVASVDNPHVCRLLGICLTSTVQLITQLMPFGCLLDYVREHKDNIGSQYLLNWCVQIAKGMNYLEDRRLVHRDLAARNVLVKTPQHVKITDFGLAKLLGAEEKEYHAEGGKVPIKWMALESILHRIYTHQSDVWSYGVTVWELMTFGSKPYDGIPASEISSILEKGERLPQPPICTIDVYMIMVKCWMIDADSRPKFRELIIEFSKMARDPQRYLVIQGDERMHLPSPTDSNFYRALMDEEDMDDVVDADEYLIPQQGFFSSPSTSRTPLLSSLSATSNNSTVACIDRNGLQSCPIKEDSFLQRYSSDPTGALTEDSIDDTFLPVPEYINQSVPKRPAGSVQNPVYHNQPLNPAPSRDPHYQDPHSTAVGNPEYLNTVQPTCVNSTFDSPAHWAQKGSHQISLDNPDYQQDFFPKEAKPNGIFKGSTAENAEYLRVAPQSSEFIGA

[2] = biological target: T4, Ba/F3 cells with EGFR exon 20 NPG Ins D770_N771 (Homo sapiens, UniProt P00533, INS770NPG); test: EGFR activity: Ba/F3 cell viability (CellTiter-Glo, 72 h), EGFR exon 20 NPG insertion; details: EGFR exon 20 NPG Ins D770_N771, cell viability, read-out: BaF3 NPG IC50
T4 construct: expressed in transfected cells; host or cells: Ba/F3 (murine pro-B cells), retroviral transduction, puromycin selection, IL3-independent pool
T4 sequence (P00533 with tags, fused parts or gaps INS770NPG): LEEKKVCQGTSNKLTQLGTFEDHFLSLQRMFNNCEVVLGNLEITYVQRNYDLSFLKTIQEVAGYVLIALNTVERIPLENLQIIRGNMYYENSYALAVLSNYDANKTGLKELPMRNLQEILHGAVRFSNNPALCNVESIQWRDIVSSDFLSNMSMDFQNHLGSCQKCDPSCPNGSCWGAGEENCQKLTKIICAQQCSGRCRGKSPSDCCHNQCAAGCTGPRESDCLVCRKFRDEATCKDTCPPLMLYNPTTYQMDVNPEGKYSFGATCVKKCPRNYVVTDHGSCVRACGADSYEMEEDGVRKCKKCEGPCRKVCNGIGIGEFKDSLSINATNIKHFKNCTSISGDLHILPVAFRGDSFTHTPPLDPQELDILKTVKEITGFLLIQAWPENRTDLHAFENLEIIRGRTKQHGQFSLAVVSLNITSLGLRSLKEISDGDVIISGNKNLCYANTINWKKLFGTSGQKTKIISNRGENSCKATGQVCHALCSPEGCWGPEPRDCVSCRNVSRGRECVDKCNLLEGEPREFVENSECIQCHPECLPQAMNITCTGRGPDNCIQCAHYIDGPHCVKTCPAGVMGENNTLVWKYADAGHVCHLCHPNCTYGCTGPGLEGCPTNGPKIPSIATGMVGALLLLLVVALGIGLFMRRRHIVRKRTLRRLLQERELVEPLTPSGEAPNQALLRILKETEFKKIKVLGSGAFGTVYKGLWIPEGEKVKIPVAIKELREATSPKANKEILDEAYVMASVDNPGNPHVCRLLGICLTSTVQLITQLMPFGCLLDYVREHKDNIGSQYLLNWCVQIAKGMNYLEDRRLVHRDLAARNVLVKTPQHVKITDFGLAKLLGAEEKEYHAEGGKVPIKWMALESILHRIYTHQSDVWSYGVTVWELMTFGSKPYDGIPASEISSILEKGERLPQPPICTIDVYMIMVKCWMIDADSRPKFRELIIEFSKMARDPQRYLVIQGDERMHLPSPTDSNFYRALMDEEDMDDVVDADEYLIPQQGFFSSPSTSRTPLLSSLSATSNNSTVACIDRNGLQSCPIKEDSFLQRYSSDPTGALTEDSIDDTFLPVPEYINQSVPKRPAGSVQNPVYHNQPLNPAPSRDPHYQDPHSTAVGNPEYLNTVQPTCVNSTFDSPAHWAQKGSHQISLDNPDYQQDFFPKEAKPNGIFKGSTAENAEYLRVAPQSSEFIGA

T1 sequence (P00533 with tags, fused parts or gaps DUP767-769): as the sequence (P00533 with tags, fused parts or gaps INS769ASV) above

Compound	IC50 (pEGFR in CUTO14 cells)	IC50 (Ba/F3 cells with EGFR WT)	IC50 [1]	IC50 [2]
C=CC(=O)NC1(C#Cc2cnccc2-c2[nH]c3c(c2Nc2cccc(Cl)c2OC)C(=O)NCC3)CCN(C)CC1 [compound 411]	0.1 to 1 µM	> 1 µM	0.1 to 1 µM	0.1 to 1 µM
COc1c(Cl)cccc1Nc1c(-c2ccncc2C#CC2(NC(=O)/C=C/CN(C)C)COC2)[nH]c2c1C(=O)NCC2 [compound 416]	< 0.1 µM	> 1 µM	0.1 to 1 µM	0.1 to 1 µM
COc1c(F)cccc1Nc1c(-c2ccncc2C#CC2(NC(=O)/C=C/CN(C)C)COC2)[nH]c2c1C(=O)NCC2 [compound 417]	0.1 to 1 µM	> 1 µM	0.1 to 1 µM	0.1 to 1 µM
COc1c(F)cccc1Nc1c(-c2ccncc2C#C[C@]2(NC(=O)/C=C/CN(C)C)CCOC2)[nH]c2c1C(=O)NCC2 [compound 418]	0.1 to 1 µM	> 1 µM	0.1 to 1 µM	0.1 to 1 µM
COc1c(F)cccc1Nc1c(-c2ccncc2C#C[C@@]2(NC(=O)/C=C/CN(C)C)CCOC2)[nH]c2c1C(=O)NCC2 [compound 419]	0.1 to 1 µM	> 1 µM	0.1 to 1 µM	0.1 to 1 µM
COc1c(Cl)cccc1Nc1c(-c2ccncc2C#C[C@@]2(NC(=O)/C=C/CN(C)C)CCOC2)[nH]c2c1C(=O)NCC2 [compound 420]	< 0.1 µM	0.1 to 1 µM	< 0.1 µM	< 0.1 µM
COc1c(Cl)cccc1Nc1c(-c2ccncc2C#C[C@]2(NC(=O)/C=C/CN(C)C)CCOC2)[nH]c2c1C(=O)NCC2 [compound 421]	< 0.1 µM	> 1 µM	< 0.1 µM	< 0.1 µM
COc1c(F)cccc1Nc1c(-c2ccncc2OC[C@@]2(C)CCN2C(=O)/C=C/CN(C)C)[nH]c2c1C(=O)NCC2 [compound 422]	< 0.1 µM	0.1 to 1 µM	< 0.1 µM	< 0.1 µM
COc1c(F)cccc1Nc1c(-c2ccncc2OC[C@]2(C)CCN2C(=O)/C=C/CN(C)C)[nH]c2c1C(=O)NCC2 [compound 423]	< 0.1 µM	> 1 µM	< 0.1 µM	< 0.1 µM
COc1c(Cl)cccc1Nc1c(-c2ccncc2OC[C@]2(C)CCN2C(=O)/C=C/CN(C)C)[nH]c2c1C(=O)NCC2 [compound 424]	< 0.1 µM	0.1 to 1 µM	< 0.1 µM	< 0.1 µM
COc1c(Cl)cccc1Nc1c(-c2ccncc2OC[C@@]2(C)CCN2C(=O)/C=C/CN(C)C)[nH]c2c1C(=O)NCC2 [compound 425]	< 0.1 µM	0.1 to 1 µM	< 0.1 µM	< 0.1 µM
CCc1c(F)cccc1Nc1c(-c2ccncc2OC[C@@]2(C)CCN2C(=O)/C=C/CN(C)C)[nH]c2c1C(=O)NCC2 [compound 426]	< 0.1 µM	0.1 to 1 µM	< 0.1 µM	< 0.1 µM
CCc1c(F)cccc1Nc1c(-c2ccncc2OC[C@]2(C)CCN2C(=O)/C=C/CN(C)C)[nH]c2c1C(=O)NCC2 [compound 427]	< 0.1 µM	0.1 to 1 µM	< 0.1 µM	< 0.1 µM
CC#CC(=O)N1CCOC[C@H]1COc1cnccc1-c1[nH]c2c(c1Nc1cccc(Cl)c1OC)C(=O)NCC2 [compound 429]	0.1 to 1 µM	0.1 to 1 µM	0.1 to 1 µM	< 0.1 µM
C=CC(=O)N1CCC[C@]1(C)C#Cc1cnccc1-c1[nH]c2c(c1Nc1cc(F)cc(Cl)c1OC)C(=O)NCC2 [compound 430]	< 0.1 µM	0.1 to 1 µM	< 0.1 µM	< 0.1 µM
CC#CC(=O)N1CCC[C@]1(C)C#Cc1cnccc1-c1[nH]c2c(c1Nc1cc(F)cc(Cl)c1OC)C(=O)NCC2 [compound 431]	< 0.1 µM	0.1 to 1 µM	< 0.1 µM	< 0.1 µM
COc1c(Cl)cccc1Nc1c(-c2ccncc2C#C[C@@]2(C)CCCN2C(=O)C#CCN(C)C)[nH]c2c1C(=O)NCC2 [compound 433]	< 0.1 µM	0.1 to 1 µM	< 0.1 µM	< 0.1 µM
COc1c(F)cccc1Nc1c(-c2ccncc2C#C[C@@]2(C)CCCN2C(=O)C#CCN(C)C)[nH]c2c1C(=O)NCC2 [compound 434]	< 0.1 µM	0.1 to 1 µM	< 0.1 µM	< 0.1 µM
COc1c(Cl)cc(F)cc1Nc1c(-c2ccncc2C#C[C@@]2(C)CCCN2C(=O)/C=C/CN(C)C)[nH]c2c1C(=O)NCC2 [compound 435]	< 0.1 µM	0.1 to 1 µM	< 0.1 µM	< 0.1 µM
COc1c(Cl)cccc1Nc1c(-c2ccncc2C#CC23CC(CN2C(=O)/C=C/CN(C)C)C3)[nH]c2c1C(=O)NCC2 [compound 436]	< 0.1 µM	0.1 to 1 µM	< 0.1 µM	< 0.1 µM

Compound	IC50 (pEGFR in CUTO14 cells)	IC50 (Ba/F3 cells with EGFR WT)	IC50 [1]	IC50 [2]
COc1c(F)cccc1Nc1c(-c2ccncc2C#CC23CC(CN2C(=O)/C=C/CN(C)C)C3)[nH]c2c1C(=O)NCC2 [compound 437]	< 0.1 µM	0.1 to 1 µM	< 0.1 µM	< 0.1 µM
C=CC(=O)NC1(C#Cc2cnccc2-c2[nH]c3c(c2Nc2cc(F)cc(Cl)c2OC)C(=O)NCC3)COC1 [compound 440]	< 0.1 µM	0.1 to 1 µM	< 0.1 µM	< 0.1 µM
COc1c(F)cccc1Nc1c(-c2ccncc2C#C[C@@]2(C)CCCN2C(=O)/C=C/CN2CC(OC)C2)[nH]c2c1C(=O)NCC2 [compound 441]	< 0.1 µM	0.1 to 1 µM	< 0.1 µM	< 0.1 µM
COc1c(F)cccc1Nc1c(-c2ccncc2C#C[C@@]2(C)CCCN2C(=O)/C=C/CN2CCOCC2)[nH]c2c1C(=O)NCC2 [compound 442]	0.1 to 1 µM	> 1 µM	0.1 to 1 µM	0.1 to 1 µM
COc1c(F)cccc1Nc1c(-c2ccncc2C#C[C@@]2(C)CCCN2C(=O)/C=C/CN2CC[C@H](OC)C2)[nH]c2c1C(=O)NCC2 [compound 443]	< 0.1 µM	0.1 to 1 µM	< 0.1 µM	< 0.1 µM
COc1c(F)cccc1Nc1c(-c2ccncc2C#C[C@@]2(C)CCCN2C(=O)/C=C/CN2CC[C@@H](OC)C2)[nH]c2c1C(=O)NCC2 [compound 444]	< 0.1 µM	0.1 to 1 µM	< 0.1 µM	< 0.1 µM
COc1c(F)cccc1Nc1c(-c2ccncc2C#C[C@@]2(C)CCCN2C(=O)/C=C/CN2CC(F)(F)C2)[nH]c2c1C(=O)NCC2 [compound 445]	0.1 to 1 µM	> 1 µM	0.1 to 1 µM	0.1 to 1 µM
CC#CC(=O)N1CC[C@@H]1COc1cnccc1-c1[nH]c2c(c1Nc1cccc(C(F)F)c1OC)C(=O)NCC2 [compound 446]	< 0.1 µM	0.1 to 1 µM	< 0.1 µM	< 0.1 µM
C#CC(=O)N1CC[C@@H]1COc1cnccc1-c1[nH]c2c(c1Nc1cccc(Cl)c1OC)C(=O)NCC2 [compound 447]	< 0.1 µM	0.1 to 1 µM	< 0.1 µM	< 0.1 µM
C=CC(=O)NC(C)(C)COc1cnccc1-c1[nH]c2c(c1Nc1cccc(Cl)c1OC)C(=O)NCC2 [compound 448]	< 0.1 µM	0.1 to 1 µM	< 0.1 µM	< 0.1 µM
Cc1c(F)cccc1Nc1c(-c2ccncc2C#CC(C)(C)NC(=O)/C=C/CN(C)C)[nH]c2c1C(=O)NCC2 [compound 449]	< 0.1 µM	0.1 to 1 µM	< 0.1 µM	< 0.1 µM
Cc1c(F)cccc1Nc1c(-c2ccncc2C#C[C@@]2(C)CCCN2C(=O)/C=C/CN(C)C)[nH]c2c1C(=O)NCC2 [compound 450]	< 0.1 µM	0.1 to 1 µM	< 0.1 µM	< 0.1 µM
Cc1c(F)cccc1Nc1c(-c2ccncc2C#CC23CC(CN2C(=O)/C=C/CN(C)C)C3)[nH]c2c1C(=O)NCC2 [compound 451]	< 0.1 µM	0.1 to 1 µM	< 0.1 µM	< 0.1 µM
C=CC(=O)N1CC2CC1(C#Cc1cnccc1-c1[nH]c3c(c1Nc1cccc(F)c1C)C(=O)NCC3)C2 [compound 452]	< 0.1 µM	0.1 to 1 µM	< 0.1 µM	< 0.1 µM
CCc1c(F)cccc1Nc1c(-c2ccncc2C#CC(C)(C)NC(=O)/C=C/CN(C)C)[nH]c2c1C(=O)NCC2 [compound 453]	< 0.1 µM	0.1 to 1 µM	< 0.1 µM	< 0.1 µM
COc1c(Cl)cccc1Nc1c(-c2ccncc2C#C[C@H]2CCN2C(=O)/C=C/CN(C)C)[nH]c2c1C(=O)NCC2 [compound 456]	< 0.1 µM	0.1 to 1 µM	< 0.1 µM	< 0.1 µM
COc1c(Cl)cccc1Nc1c(-c2ccncc2C#C[C@@H]2CCN2C(=O)/C=C/CN(C)C)[nH]c2c1C(=O)NCC2 [compound 457]	< 0.1 µM	< 0.1 µM	< 0.1 µM	< 0.1 µM
COc1c(F)cccc1Nc1c(-c2ccncc2C#CC2(C)CCN2C(=O)/C=C/CN(C)C)[nH]c2c1C(=O)NCC2 (stereo not drawn) [compound 462]	> 1 µM	> 1 µM	> 1 µM	> 1 µM
COc1c(F)cccc1Nc1c(-c2ccncc2C#CC(C)(C)NC(=O)/C=C/CN2CC(F)C2)[nH]c2c1C(=O)NCC2 [compound 463]	< 0.1 µM	> 1 µM	0.1 to 1 µM	< 0.1 µM
